Laboratory results published in patent US20260041747A1, “T CELL EPITOPES ASSOCIATED WITH TYPE 1 DIABETES” (Repertoire Immune Medicines, Inc., priority 2022, published 2026).
One block for each sequence: values may come before it.

Legend:
[1] = test system: PBMC-derived CD8+ T cells from T1D patients; assay: Binding of HLA-A*02:01 barcoded pMHC tetramer library to PBMC-derived CD8+ T cells of T1D patients and healthy donors; design: species or system human; conditions: for Normalized T1D prevalence: average number of times the epitope in the pMHC tetramer library was bound by cognate TCR in the T1D cohort, 8 T1D patients, 1 nM per tetramer; for % Presence in T1D samples: percentage of T1D samples in which the epitope response was observed
Excerpt: This example describes assessment of peptide binding to peripheral T cells from 8 short clinical duration T1D patients and 21 healthy donors who are HLA-matched without a history of diabetes, thereby to identify T1D-associated, HLA-A*02:01-restricted T cell epitopes.
Briefly, in the high-throughput screen described in Example 1, a library of HLA-A*02:01 oligo-barcoded pMHC tetramers was created as described in Francis et al., (2022) Sci Immunol 21:eabk3070. This tetramer library was composed of individual pMHCs representing hundreds of different epitopes identified in Example 1. CD8+ T cells were derived from frozen peripheral blood mononuclear cells (PBMCs) of human donors. CD8+ T cells were enriched via magnetic-activated cell separation from thawed PBMCs via commercially available negative enrichment kits (Miltenyi). Resulting enriched CD8+ T cells were counted and a standard input of 1 million CD8+ T cells per subject were then stained with tetramer libraries at final concentration of 1 nM per pMHC tetramer, in the presence of 2 mg/mL salmon sperm DNA in PBS with 0.5% BSA solution for 20 min. Stained cells were barcoded by commercially available anti-TCR antibody-derived tags (ADT, clone IP26, Biolegend). Tetramer bound cells were then labeled with phycoerythrin (PE) conjugated anti-DKDDDDK-Flag antibody (Biolegend) followed by dead cell discrimination using 7-amino-actinomycin D (7-AAD). Live, tetramer positive cells were sorted using a Sony MA900 Sorter. Following sorting, tetramer positive cells were single-cell sequenced using commercially available systems and protocols from 10× Genomics. Post-sequencing cells were demultiplexed and passed through standard quality control workflows (removal of duplicates, damaged cells, empty droplets, etc.) as described in Francis et al., (2022) Sci Immunol 21:eabk3070. Demultiplexed, tetramer positive cells were scored for pMHC-TCR interactions as described in Francis et al., (2022) Sci Immunol 21:eabk3070. Non-control pMHC-TCR putative binders passing quality control filters and scoring were used for analysis. The resulting pMHC-TCR matrix reactivity map was analyzed by abundance for “normalized T1D prevalence”, “relative enrichment”, and “% presence in T1D samples.” Normalized prevalence was defined as the average number of times an epitope in the pMHC tetramer library was bound by cognate TCR in the T1D cohort. […] Finally, for an epitope to be considered of value, it must pass prevalence and enrichment thresholds and have cognate T cells present in at least 75 percent of T1D subjects.

[2] = test system: recombinant TCRs (rTCRs); assay: Activation (CD69+) of J76-CD8-NFAT-GFP cells expressing recombinant TCRs by peptide-loaded HLA-A*02:01+ T2 cells; type: cell-based, human; conditions: 50 μM peptide, T2 cells 1:1, 16 hours
Excerpt: This example describes functional validation of the T cell epitopes described in Examples 2 and 3, and their cognate TCRs, by assessing the ability of certain T cell epitopes, when presented by APCs that express HLA-A*02:01, to activate an immortalized T cell line expressing recombinant TCRs sequenced from the T cells of T1D patients and healthy donors. […] The relevance of certain identified T1D associated epitopes was evidenced by binding and activation of cognate TCRs in primary T cells or recombinant T cell lines.
(§1) Briefly, native paired alpha and beta TCR sequences identified from human tissues, such as PBMC or islet-derived CD8 T cells, were cloned into the pLVX-EFla lentiviral backbone (Takara) as a bicistronic TCRB-T2A-TCRa vector. TCRa/B/Jurkat J76 cells, which were engineered to express CD8 and a nuclear factor of activated T cells (NFAT)-green fluorescent protein (GFP) reporter (referred to as J76-CD8-NFAT-GFP), were transduced with lentiviral vectors produced from HEK 293T cells. To assess functional activity of the recombinant TCRs (rTCRs), J76-CD8-NFAT-GFP expressing recombinant TCRs were incubated at a 1:1 ratio with the HLA-A*02:01^+ T2(174×CEM.T2) (ATCC CRL-1991) lymphoblastic cell line, with a final concentration of 50 μM of cognate peptide (Vivitide, >95% pure) or 0.5% dimethylsulfoxide (DMSO, vehicle). Cell mixtures were incubated at 37° C., 5% CO2 for 16 hours. Activation of the T cells was assessed by flow cytometry using anti-CD3-PE-Cy7 (Clone UCHT1) and anti-CD69-APC (Clone FN50) antibodies, and analyzed using the Satorius iQue Screener Plus and FlowJo v10. Activation of rTCR-expressing cell lines was determined by comparing the mean percentage of CD69^+ cells out of CD3^+ cells, in cell mixtures with cognate peptide-loaded T2 cells, with the mean percentage in cell mixtures with no peptide (DMSO control).

[3] = test system: pancreatic islet infiltrating T cells; assay: Binding of pMHC library to polyclonally expanded islet-derived T cell lines from T1D organ donors; design: species or system human; conditions: single high abundance TCR
Excerpt: This example describes assessment of peptides that bind to T cell lines derived from living pancreatic islets of recently deceased pancreatic organ donors with T1D, thereby to identify T1D-associated, HLA-A*02:01-restricted T cell epitopes directly associated with islet infiltrating T cells. This assay, using specialized post-mortem processing of difficult-to-obtain pancreas biopsy, further confirmed the association of selected epitopes with T1D, given that disease-associated T cell epitopes generally result in infiltration of T cells that can cause inflammation and subsequent beta cell cytotoxicity in the pancreas.
Briefly, pancreatic slices were sourced from individuals with suspected or confirmed Type I diabetes diagnosis at the time of death by the Network of Pancreatic Organ Donors. Within in 72 hours of death, pancreatic islets were macrodissected from the slices under sterile conditions. These islets were cultured with a cocktail of cytokines and immune stimulating factors that allow T cell expansion independent of cognate TCR-pMHC interaction, using the polyclonal T cell expansion method described in Babon et al., (2016) Nat Med 22:1482-1487. The resulting T cell lines were then screened against pMHC libraries described in Example 2.
This epitope bound to a single, high abundance TCR derived from an individual that was diagnosed with Type I diabetes 4 months prior to death. […]

[4] = test system: islet-derived rTCR; assay: Peptide dose-response of islet-derived rTCR expressed in Jurkat T cells; type: cell-based, human; conditions: Jurkat T cells expressing islet-derived rTCR, pulsed with 0.001 to 100 μM peptide; approximate affinity of pMHC-rTCR interaction; read-out: EC50 (half maximal effective concentration)
Procedure: FIG. 1 depicts a dose-response for the islet-derived rTCR described in Table 5 when pulsed with a range of cognate peptide from 0.001 to 100 μM.
This epitope bound to a single, high abundance TCR derived from an individual that was diagnosed with Type I diabetes 4 months prior to death. […] The EC50 value represents an approximate affinity for the pMHC-rTCR[…] interaction.
as §1, with “To assess functional activity of the recombinant TCRs (rTCRs), J76-CD8-NFAT-GFP expressing recombinant TCRs were incubated at a 1:1 ratio with the HLA-A*02:01^+ T2(174×CEM.T2) (ATCC CRL-1991) lymphoblastic cell line, with a final concentration of 50 μM of cognate peptide (Vivitide, >95% pure) or 0.5% dimethylsulfoxide (DMSO, vehicle). Cell mixtures were incubated at 37° C., 5% CO2 for 16 hours.” left out

Sequence: ALAWAVWLA
- Normalized T1D prevalence [1]: 1.94
- % Presence in T1D samples [1]: 87.5%

Sequence: ALMGQAAGV
- Normalized T1D prevalence [1]: 1.50
- % Presence in T1D samples [1]: 87.5%

Sequence: FLPYDHARI
- Normalized T1D prevalence [1]: 2.94
- % Presence in T1D samples [1]: 87.5%

Sequence: FLSWALNSC
- Normalized T1D prevalence [1]: 2.50
- % Presence in T1D samples [1]: 100%

Sequence: FSESILTYV
- Normalized T1D prevalence [1]: 2.88
- % Presence in T1D samples [1]: 87.5%

Sequence: FVAGLFVML
- Normalized T1D prevalence [1]: 1.88
- % Presence in T1D samples [1]: 87.5%

Sequence: GQWAGGAYA
- Normalized T1D prevalence [1]: 1.81
- % Presence in T1D samples [1]: 87.5%

Sequence: KLNWDLHTA
- Normalized T1D prevalence [1]: 3.63
- % Presence in T1D samples [1]: 87.5%

Sequence: KLSPSQHLA
- Normalized T1D prevalence [1]: 1.06
- % Presence in T1D samples [1]: 87.5%

Sequence: KMAKDWKTV
- Normalized T1D prevalence [1]: 2.38
- % Presence in T1D samples [1]: 100%
- Mean % CD69+ T cells with cognate peptide ([2]; TCR_12, source PBMC): 18.65%

Sequence: LLPPRVLPA
- Mean % CD69+ T cells with cognate peptide ([2]; TCR_15, source PBMC): 32.25%

Sequence: LMSGILGLA
- Normalized T1D prevalence [1]: 2.44
- % Presence in T1D samples [1]: 87.5%

Sequence: LQFRGSMLA
- Normalized T1D prevalence [1]: 2.00
- % Presence in T1D samples [1]: 100%

Sequence: MVWESGCVV
- Normalized T1D prevalence [1]: 16.313
- % Presence in T1D samples [1]: 100%

Sequence: NLLYPVPLV
- Normalized T1D prevalence [1]: 2.81
- % Presence in T1D samples [1]: 87.5%
- Mean % CD69+ T cells with cognate peptide ([2]; TCR_03, source PBMC): 49.75%
- Mean % CD69+ T cells with cognate peptide ([2]; TCR_08, source PBMC): 27.25%
- Mean % CD69+ T cells with cognate peptide ([2]; TCR_11, source PBMC): 21.65%

Sequence: NLYTFVLKV
- Normalized T1D prevalence [1]: 2.56
- % Presence in T1D samples [1]: 87.5%

Sequence: QALDVGWLV
- Normalized T1D prevalence [1]: 1.19
- % Presence in T1D samples [1]: 87.5%

Sequence: QLLFSLPKL
- Mean % CD69+ T cells with cognate peptide ([2]; TCR_16, source PBMC): 61.55%

Sequence: SVALWNNAV
- Normalized T1D prevalence [1]: 1.13
- % Presence in T1D samples [1]: 87.5%

Sequence: TLDIFLEIV
- Mean % CD69+ T cells with cognate peptide ([2]; TCR_17, source PBMC): 36.7%

Sequence: TLMAVIGGL
- Normalized T1D prevalence [1]: 3.63
- % Presence in T1D samples [1]: 100%

Sequence: TLSKPSPMPV
- Normalized T1D prevalence [1]: 1.06
- % Presence in T1D samples [1]: 87.5%

Sequence: TLSWALYEL
- Normalized T1D prevalence [1]: 2.50
- % Presence in T1D samples [1]: 100%
- Mean % CD69+ T cells with cognate peptide ([2]; TCR_01, source PBMC): 59.8%
- Mean % CD69+ T cells with cognate peptide ([2]; TCR_02, source PBMC): 58%
- Mean % CD69+ T cells with cognate peptide ([2]; TCR_04, source PBMC): 48%
- Mean % CD69+ T cells with cognate peptide ([2]; TCR_06, source PBMC): 39%
- Mean % CD69+ T cells with cognate peptide ([2]; TCR_07, source PBMC): 33.55%
- Mean % CD69+ T cells with cognate peptide ([2]; TCR_14, source PBMC): 15.45%

Sequence: TLVTLCHYA
- Normalized T1D prevalence [1]: 1.94
- % Presence in T1D samples [1]: 87.5%

- EC50 [4]: 2200 nM
Sequence: VIGDWLNLI
- Normalized T1D prevalence [1]: 2.188
- % Presence in T1D samples [1]: 75%
- Binding to islet-derived T cells from T1D patients [3]: identified as binding
- Mean % CD69+ T cells with cognate peptide ([2]; TCR_09, source PBMC): 26.15%
- Mean % CD69+ T cells with cognate peptide ([2]; TCR_18, source PBMC): 26.15%
- Mean % CD69+ T cells with cognate peptide ([2]; TCR_19, source islet): 28.8%

Sequence: VLQASSISA
- Normalized T1D prevalence [1]: 3.19
- % Presence in T1D samples [1]: 100%

Sequence: VLVNKVLLV
- Normalized T1D prevalence [1]: 1.69
- % Presence in T1D samples [1]: 87.5%
- Mean % CD69+ T cells with cognate peptide ([2]; TCR_10, source PBMC): 29.45%

Sequence: YAPWELLSV
- Normalized T1D prevalence [1]: 2.44
- % Presence in T1D samples [1]: 87.5%
- Mean % CD69+ T cells with cognate peptide ([2]; TCR_05, source PBMC): 38.4%
- Mean % CD69+ T cells with cognate peptide ([2]; TCR_13, source PBMC): 17.55%
